Where “and” joins values, the source holds several entries; their conditions need not be identical. Identical values can stand only once.

The target of test [1] is T1, KTF (Homo sapiens, UniProt P42345+P62942, W2101F).
T1 construct: The minimal FRB domain comprises amino acids 2025-2114 of human mTor; expressed in transfected cells; host or cells: COS1 cells
Put plainly: SeAP transcriptional switch assay, FRB mutant KTF. It is filed as cell-based. How it is done:
Drug efficacy was determined in a three-plasmid transcriptional switch reporter assay. ˜106 COS1 cells were coelectroporated with 2 μg of the DNA binding construct pBJ5-Gal4-FKBP(3), 2 μg pBJ5-VP16 (or the relevant mutant FRB) and 2 μg of the Gal4-SeAP reporter. Electroporation details are available upon request. Cells were immediately aliquoted to 2 or 3×96 well plates with flat bottoms. After 24 hours incubation media was supplemented with a rapalog in triplicate and in serial two fold dilutions. Following 24 hours further incubation, cells with media were wrapped carefully in plastic wrap and heated to 65° C. for two hours to inactivate endogenous phosphatases. 50 μL of media was transferred to a black 96 well plate (Costar 3915) and supplemented with 1 mM methylumbelliferrylphosphate (Sigma, St. Louis, Mo.) in 1M diethanolamine (pH 10.0 with carbonate). After 16 hours incubation at 37° C. SeAP activity was measured by fluorescence with a Spectamax M2 fluorometer (Molecular Devices, Sunnyvale, Calif.) with transmission set at 355 nm and emmission set at 460 nm. Data was analysed with Softmax Pro (Molecular Devices), Microsoft Excel and Prism 3 (GraphPad Software).

Test [2] addresses T2, FRB* (Homo sapiens, UniProt P42345+P62942, K2095P/T2098L/W2101F).
T2 construct: The minimal FRB domain comprises amino acids 2025-2114 of human mTor; expressed in transfected cells; host or cells: COS-1 cells
Put plainly: SeAP reporter assay, dimerization of FRB*-VP16 to FKBP3-GAL4DBD in COS-1 cells. Type of test: cell-based. An excerpt:
(§1) Transcription activation by recruitment of chimeric transcriptional activation and DNA binding domains is described. COS-1 cells were electroporated with […] each of the following expression plasmids (Ho, S. N., Biggar, S. R., Spencer, D. M., Schreiber, S. L., and Crabtree, G. R. “Dimeric ligands define a role for transcriptional activation domains in reinitiation.” (1996) Nature 382, 822-826): pG5IL2SX (drives transcription of bacterial secreted alkaline phosphatase (SeAP) through GAL4 DNA binding […] elements), pBJ5-GF3E (which expresses the GAL4 DNA binding domain fused to three copies of human FKBP12), and pBJ5-FRBVP. (which expresses a FRB fusion with the Herpes Simplex Virus VP16 Activation domain) A FRB*-VP16 fusion protein which consists of modified FRB protein fused to the VP16 activation domain was also used selectively. Transfected cells were distributed equally to 96 well plates and were incubated at 37° C. for 24 to 36 hours before media was supplemented with drug in a dilution curve in which each point is represented in quadruplicate. Cells were incubated at 37° C. for an additional 24 hours followed by a 2-hour treatment at 65° C. to inactivate endogenous phosphatases. Each well was supplemented with 100μL of 1 mM methylumbelliferylphosphate dissolved in 2 M diethanolamine buffered to pH 10.0 with carbonate and incubated at 37° C. for 16 hours. Fluorescence was measured with a Fluoroscan (ICN) plate reader at 355 nm transmission and 455 nm emission using Deltasoft software.
(§2) Drug efficacy was determined in a three-plasmid transcriptional switch reporter assay. ˜106 COS1 cells were coelectroporated with 2 μg of the DNA binding construct pBJ5-Gal4-FKBP(3), 2 μg pBJ5-VP16 (or the relevant mutant FRB) and 2 μg of the Gal4-SeAP reporter. Electroporation details are available upon request. […] SeAP activity was measured by fluorescence with a Spectamax M2 fluorometer (Molecular Devices, Sunnyvale, Calif.) with transmission set at 355 nm and emmission set at 460 nm. Data was analysed with Softmax Pro (Molecular Devices), Microsoft Excel and Prism 3 (GraphPad Software).

Test [3] addresses T3, FKBP-GSK3β-GFP (Homo sapiens, UniProt P62942).
T3 construct: expressed in transfected cells; host or cells: COS1 cells
Nature of the test: Sub-cellular localization of FKBP-GSK3β-GFP with FRB(TLW)-NES and FRB(KTF)-NLS in COS1 cells. Conditions: 10 nM, 1 hour. Type of test: cell-based. The procedure: COS1 cells were electroporated with 1 μg pS-FKBP-GSK3β-GFP, 1 μg of the ‘exporter’ pBJ5-FRB(TLW)-Exp-HA containing a nuclear export sequence derived from the rev protein of Human Immunodeficiency Virus and 3 μg of the ‘importer’ pBJ5-FRB(KTF)-Imp with a nuclear localization sequence from SV40 Large T antigen. Cells were plated on autoclaved coverslips and incubated 36 hours followed by 1 hour of rapalog treatment (10 nM). Cells were fixed 10 minutes in 4% paraformaldeyde/PBS at 4° C. and mounted for microscopy with DAPI to visualize the nucleus. Microscopy was perfomed with a Leica confocal microscope and Leica software.

Test [4] deals with GSK-3βFRB* (UniProt P26883+P42345, K2095P/T2098L/W2101F). Put plainly: Stabilization of transfected GSK-3β FRB* in MEFs (Western blot). Type of test: cell-based, mouse. The arrangement: The minimal FRB domain comprises amino acids 2025-2114 of human mTor; GSK-3β (fusion partner); expressed in transfected cells; host or cells: wild-type mouse embryonic fibroblasts (MEFs). Conditions: transiently transfected MEFs, drug for 36 h. The procedure: MEFs were transfected using FuGENE-6 (Roche Applied Science). Plasmid DNA (5 μg per 6 cm dish) was mixed in a 1:2 ratio with the FuGENE-6 reagent in Opti-MEM (Invitrogen Life Technologies) before being applied to the cells growing in DMEM/10% FCS and containing C20-MaRap where appropriate. After 12 hours, the cells were split to 6 well plates before further drug treatments to ensure each well contained an equivalently transfected population.
Western Blot analysis was carried out using cell lysates prepared in RIPA buffer (10 mM Tris pH 7.2, 150 mM NaCl, 0.1% SDS, 1% Triton X-100, 1% deoxycholate, 5 mM EDTA, protease inhibitor cocktail (Invitrogen Life Technologies)) and then separated using standard SDS/PAGE before being transferred to PVDF (Millipore) using standard Western blotting procedures. The anti-GSK-3β antibody, used at 1:2500, the anti-HSP-90 antibody, 1:2500, and the anti-FKBP12 antibody, 1:2500, were purchased from BD Transduction Labs. The anti-β-catenin antibody, 1:2000, and anti-HSP-70 antibody, 1:1000 were purchased from Santa Cruz Biotechnology. The anti-BRG1 antibody, 1:1000, was previously prepared in our laboratory (Khavari, P. A. et al. “BRG1 Contains a Conserved Domain of the SWI2/SNF2 Family Necessary for Normal Mitotic Growth and Transcription.” (1993) Published in Nature 366, 170-174). […]
On the technique in general: A western blot detects proteins with antibodies after separation by electrophoresis.

Test [5] has as its target T4, FRB (Homo sapiens, UniProt P42345+P62942).
T4 construct: The minimal FRB domain comprises amino acids 2025-2114 of human mTor; expressed in transfected cells; host or cells: COS-1 cells, electroporated with pBJ5-FRBVP, pBJ5-GF3E and pG5IL2SX
Nature of the test: SeAP reporter assay, dimerization of FRB-VP16 to FKBP3-GAL4DBD in COS-1 cells. Type of test: cell-based.
Source text: as §1, §2

T4 sequence (P42345 2025-2114): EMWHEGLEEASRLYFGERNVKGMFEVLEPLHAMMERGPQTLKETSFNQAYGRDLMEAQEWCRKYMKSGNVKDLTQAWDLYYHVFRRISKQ
T4 sequence (P62942 whole entry, the tested form may be a part): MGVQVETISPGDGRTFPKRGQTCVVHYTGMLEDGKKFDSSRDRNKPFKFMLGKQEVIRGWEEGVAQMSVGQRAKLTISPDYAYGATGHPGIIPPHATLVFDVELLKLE
T1 sequence (P42345 2025-2114 W2101F): as the sequence (P42345 2025-2114) above, with W77F counted along it
T1 sequence (P62942 whole entry, the tested form may be a part): as the sequence (P62942 whole entry, the tested form may be a part) above
T2 sequence (P42345 2025-2114 K2095P/T2098L/W2101F): as the sequence (P42345 2025-2114) above, with K71P, T74L, W77F counted along it
T2 sequence (P62942 whole entry, the tested form may be a part): as the sequence (P62942 whole entry, the tested form may be a part) above
Chain of GSK-3βFRB* (P42345 2025-2114 K2095P/T2098L/W2101F): as the sequence (P42345 2025-2114) above, with K71P, T74L, W77F counted along it
Chain of GSK-3βFRB* (P26883 2-108): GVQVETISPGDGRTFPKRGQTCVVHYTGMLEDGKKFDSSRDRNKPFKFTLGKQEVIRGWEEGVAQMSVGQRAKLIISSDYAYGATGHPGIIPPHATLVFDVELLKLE
T3 sequence (P62942 whole entry): as the sequence (P62942 whole entry, the tested form may be a part) above

With “C20-(R or S)-methallylrapamycin [C20-MaRap]”, the “binding to KTF” value in test [1] is reported as “binds efficiently”. The EC50 (in general, the midpoint of the concentration-response curve) was 9 nM in test [1] (single mutation Trp2101 to Phe); 3.1 ± 0.36 nM in test [2] (FRB*(PLF)-VP16, ±95% confidence intervals); 226 nM and > 200 nM in test [5] (wild-type FRB(KTW)-VP16, ±95% confidence intervals). The figures for the Kd in test [2] (FRB*) and in test [5] (wild-type FRB) were 3.1 nM and more than 200 nM, respectively. Further, the “sub-cellular localization of GSK3β” value in test [3] is “localization of GSK3β to the nucleus”. For the same substance, the “GSK-3β FRB* expression” value in test [4] is listed as “restored GSK-3β FRB* expression to normal”.

The record behind these values is US20050214738A1, “Conditional allele system” (priority 2003, published 2005).
